This is an account of results in US20110130426A1, “Novel Sulphonamide Derivatives as Glucocorticoid Receptor Modulators for the Treatment of Inflammatory Diseases” (ASTRAZENECA AB, priority 2004, published 2011).

Broadly, the IC50 is the concentration at which inhibition is half-maximal.

For this test, the target named is T1, recombinant human GR (Homo sapiens, UniProt P04150).
T1 construct: purchased Panvera/Invitrogen P2812 (kit P2893)
T1 sequence (P04150 1-777): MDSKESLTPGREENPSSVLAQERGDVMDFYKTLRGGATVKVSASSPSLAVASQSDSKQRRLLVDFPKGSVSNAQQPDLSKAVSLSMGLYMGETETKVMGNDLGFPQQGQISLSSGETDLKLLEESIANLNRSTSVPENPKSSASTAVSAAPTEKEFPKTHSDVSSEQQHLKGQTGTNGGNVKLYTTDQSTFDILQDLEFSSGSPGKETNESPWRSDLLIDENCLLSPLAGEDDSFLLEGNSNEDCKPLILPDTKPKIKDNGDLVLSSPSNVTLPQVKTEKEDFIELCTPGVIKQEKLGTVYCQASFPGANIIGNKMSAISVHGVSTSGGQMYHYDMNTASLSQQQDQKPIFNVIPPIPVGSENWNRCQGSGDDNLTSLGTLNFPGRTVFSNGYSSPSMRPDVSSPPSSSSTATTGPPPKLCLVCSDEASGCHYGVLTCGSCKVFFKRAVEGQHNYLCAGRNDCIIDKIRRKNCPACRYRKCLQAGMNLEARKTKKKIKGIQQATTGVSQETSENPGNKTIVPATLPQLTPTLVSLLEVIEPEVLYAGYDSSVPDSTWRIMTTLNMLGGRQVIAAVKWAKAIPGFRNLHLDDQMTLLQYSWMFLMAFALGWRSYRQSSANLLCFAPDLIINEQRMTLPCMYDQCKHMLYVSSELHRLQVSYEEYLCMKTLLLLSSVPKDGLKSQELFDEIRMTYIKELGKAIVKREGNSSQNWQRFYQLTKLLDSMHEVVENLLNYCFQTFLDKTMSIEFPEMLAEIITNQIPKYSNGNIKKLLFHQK
Briefly: Human Glucocorticoid Receptor (GR) Assay, fluorescence polarization. Conditions: GS Red tracer, 2 hours at room temperature. It is filed as binding. As for the experimental part:
Human Glucocorticoid Receptor (GR) Assay
The assay is based on a commercial kit from Panvera/Invitrogen (Part number P2893). The assay technology is fluorescence polarization. The kit utilises recombinant human GR (Panvera, Part number P2812), a Fluoromone™ labelled tracer (GS Red, Panvera, Part number P2894) and a Stabilizing Peptide 10X (Panvera, Part number P2815). The GR and Stabilizing Peptide reagents are stored at −70° C. while the GS Red is stored at −20° C. Also included in the kit are 1M DTT (Panvera, Part number P2325, stored at −20° C.) and GR Screening buffer 10X (Panvera, Part number P2814, stored at −70° C. initially but once thawed stored at room temperature). Avoid repeated freeze/thaws for all reagents. The GR Screening buffer 10X comprises 100 mM potassium phosphate, 200 mM sodium molybdate, 1 mM EDTA and 20% DMSO.
Test compounds (1 μL) and controls (1 μL) in 100% DMSO were added to black polystyrene 384-well plates (Greiner low volume black flat-bottom, part number 784076). 0% control was 100% DMSO and 100% control was 10 μM Dexamethasone. Background solution ([…]; assay buffer 10X, Stabilizing Peptide, DTT and ice cold MQ water) was added to the background wells. GS Red solution (7 μL; assay buffer 10X, Stabilizing Peptide, DTT, GS Red and ice cold water) was added to all wells except background wells. GR solution (7 μL; assay buffer 10X, Stabilizing Peptide, DTT, GR and ice cold water) was added to all wells. The plate was sealed and incubated in a dark at room temperature for 2 hours. The plate was read in an Analyst plate reader (LJL Biosystems/Molecular Devices Corporation) or other similar plate reader capable of recording fluorescence polarization (excitation wavelength 530 nm, emission wavelength […] and a dichroic mirror at 561 nm). The IC50 values were calculated using XLfit model 205.
In general terms: In fluorescence polarisation assays a small probe gives low polarisation when free and higher when bound to something large.
Regarding `Cc1cc(C)c(S(=O)(=O)NCc2ccc(-c3ccc(Cl)cc3)s2)c(C)c1` [Example 19, N-{[5-(4-Chlorophenyl)-2-thienyl]methyl}-2,4,6-trimethylbenzenesulfonamide], the IC50 turned out to be 36 nM.

Take `Cc1cc(S(=O)(=O)Nc2cccc(CCc3ccccn3)c2)c(C)o1` [Example 35, 2,5-Dimethyl-N-[3-(2-pyridin-2-ylethyl)phenyl]furan-3-sulfonamide]: the IC50 was determined as 710 nM.

Regarding `O=S(=O)(Nc1cccc(CCc2ccccn2)c1)c1ccc(-c2ccccn2)s1` [Example 27, 5-Pyridin-2-yl-N-[3-(2-pyridin-2-ylethyl)phenyl]thiophene-2-sulfonamide], the concentration for half-maximal inhibition (IC50) was found to be 200 nM.

Take `O=S(=O)(NCc1ccc(-c2ccc(Cl)cc2)s1)c1ccccc1Br` [Example 24, 2-Bromo-N-{[5-(4-chlorophenyl)-2-thienyl]methyl}benzenesulfonamide]: the IC50 came out at 170 nM.

`CCCCOc1ccc(S(=O)(=O)NCc2c(-c3ccccc3)noc2C)cc1` [Example 6, 4-n-Butoxy-N-(5-methyl-3-phenyl-isoxazol-4-ylmethyl)-benzenesulfonamide]: the IC50 is 700 nM.

As to `Cc1cc(S(=O)(=O)Nc2cccc(CCc3ccccn3)c2)c(C)s1` [Example 28, 2,5-dimethyl-N-[3-(2-pyridin-2-ylethyl)phenyl]thiophene-3-sulfonamide], the IC50 was 220 nM.

For the molecule “N-{[5-(4-Chlorophenyl)-2-thienyl]methyl}-4-(pyridin-2-yloxy)benzenesulfonamide [Example 25]”, the 50% inhibitory concentration (IC50) turned out to be 170 nM.

`Cc1cc(C)cc(S(=O)(=O)Nc2cccc(CCc3ccccn3)c2)c1` [Example 29, 3,5-Dimethyl-N-[3-(2-pyridin-2-ylethyl)phenyl]benzenesulfonamide]: the half-inhibitory concentration (IC50) was 230 nM.

On to `O=S(=O)(Nc1cccc(CCc2ccccn2)c1)c1ccc(Cl)s1` [Example 33, 5-Chloro-N-[3-(2-pyridin-2-ylethyl)phenyl]thiophene-2-sulfonamide], for which the IC50 turned out to be 650 nM.

For the molecule `O=S(=O)(NCc1ccc(-c2ccc(Cl)cc2)s1)c1ccc(F)cc1` [Example 21, N-{[5-(4-Chlorophenyl)-2-thienyl]methyl}-4-fluorobenzenesulfonamide], the IC50 was determined as 62 nM.

Consider `Cn1nc(-c2ccc(S(=O)(=O)Nc3cccc(CCc4ccccn4)c3)s2)cc1C(F)(F)F` [Example 23, 5-[1-Methyl-5-(trifluoromethyl)-1H-pyrazol-3-yl]-N-[3-(2-pyridin-2-ylethyl)phenyl]-thiophene-2-sulfonamide], for which the IC50 was found to be 110 nM.

Consider “N-{[5-(4-Chlorophenyl)-2-thienyl]methyl}-3-(4-methylphenoxy)benzenesulfonamide [Example 32]”, for which the IC50 amounted to 390 nM.

For `COc1cc(C)c(S(=O)(=O)NCc2ccc(-c3ccc(Cl)cc3)s2)c(C)c1C` [Example 31, N-{[5-(4-Chlorophenyl)-2-thienyl]methyl}-4-methoxy-2,3,6-trimethylbenzenesulfonamide], the IC50 came out at 330 nM.

Take `Cc1onc(-c2ccccc2)c1CNS(=O)(=O)c1ccc(-c2ccccc2)cc1` [Example 5, Biphenyl-4-sulfonic acid (5-methyl-3-phenyl-isoxazol-4-ylmethyl)-amide]: the IC50 was 370 nM.

In the case of `O=[N+]([O-])c1ccc(S(=O)(=O)NCc2ccc(-c3ccc(Cl)cc3)s2)cc1` [Example 20, N-{[5-(4-Chlorophenyl)-2-thienyl]methyl}-4-nitrobenzenesulfonamide], the IC50 was determined as 59 nM.

On to `COc1ccc(S(=O)(=O)NCc2ccc(-c3ccc(Cl)cc3)s2)cc1` [Example 26, N-{[5-(4-Chlorophenyl)-2-thienyl]methyl}-4-methoxybenzenesulfonamide], for which the concentration for half-maximal inhibition (IC50) was determined as 200 nM.

Take `Cc1ccc(C)c(S(=O)(=O)Nc2cccc(CCc3ccccn3)c2)c1` [Compound 49]: the half-inhibitory concentration (IC50) was 350 nM.

Consider `COc1cccc(S(=O)(=O)NCc2ccc(-c3ccc(Cl)cc3)s2)c1` [Example 30, N-{[5-(4-Chlorophenyl)-2-thienyl]methyl}-3-methoxybenzenesulfonamide], for which the IC50 came to 310 nM.

As for `COc1cc(C)c(S(=O)(=O)NCc2c(-c3ccccc3)noc2C)c(C)c1C` [Example 1, 4-Methoxy-2,3,6-trimethyl-N-(5-methyl-3-phenyl-isoxazol-4-ylmethyl)-benzenesulfonamide], the IC50 amounted to 14 nM.

Take `Cc1onc(-c2ccccc2)c1CNS(=O)(=O)c1ccc(-c2ccc(F)cc2)cc1` [Example 2, 4′-Fluoro-biphenyl-4-sulfonic acid (5-methyl-3-phenyl-isoxazol-4-ylmethyl)-amide]: the IC50 is 35 nM.

On to `N#Cc1cccc(S(=O)(=O)NCc2ccc(-c3ccc(Cl)cc3)s2)c1` [Example 37, N-{[5-(4-Chlorophenyl)-2-thienyl]methyl}-3-cyanobenzenesulfonamide], for which the IC50 was 820 nM.

Take `O=S(=O)(Cc1ccc(Cl)cc1)NCc1ccc(-c2ccc(Cl)cc2)s1` [Example 34, 1-(4-Chlorophenyl)-N-{[5-(4-chlorophenyl)-2-thienyl]methyl}methanesulfonamide]: the 50% inhibitory concentration (IC50) is 660 nM.

For the molecule `Cc1c(S(=O)(=O)Nc2cccc(CCc3ccccn3)c2)cnn1-c1ccccc1` [Example 22, 5-Methyl-1-phenyl-N-[3-(2-pyridin-2-ylethyl)phenyl]-1H-pyrazole-4-sulfonamide], the IC50 worked out at 99 nM.

As to `Cc1nn(C(F)F)c(C)c1S(=O)(=O)Nc1cccc(CCc2ccccn2)c1` [Example 36, 1-(Difluoromethyl)-3,5-dimethyl-N-[3-(2-pyridin-2-ylethyl)phenyl]-1H-pyrazole-4-sulfonamide], the IC50 came out at 810 nM.
